Consider one molecule from patent US20240317727A1 (Duke University, priority 2018, published 2024).

The test system of experiment [1] is C4-2 malignant prostate cancer cells vs BPH-1 non-tumorigenic prostate cells. Kind of experiment: AlamarBlue cell viability, C4-2 vs BPH-1. The following applies: 96 hours, AlamarBlue assay, FIG. 6A. It is filed as cell-based, human. The procedure:
The cells were treated for 96 hours with the indicated concentrations of the compounds of the disclosure and cell viability was measured with the AlamarBlue assay. FIG. 6B illustrates the results of Compound 0017 used in a 7-week Maximal Tolerated Dose (MTD) study conducted in mice (3 mice identified as 118, 119 and 120). […] After sacrificing the mice on the last day of the administration, mouse liver and heart tissue was isolated, messenger RNA extracted and the transcript abundance of the HSF1 target gene, Hsp70, was evaluated by qRT-PCR relative to the internal RNA control, GAPDH. The results of the vehicle-treated versus Compound 0017-treated experiments were compared.
Based on the chemical structure of Compound 0017 and its activity, and of other HSF1-interacting chemicals identified in the screen, additional derivatives were designed, synthesized and evaluated for binding to HSF1 and preferential inhibition of metastatic prostate cancer cells (C4-2) versus benign prostate cells (BPH-1).

The test system of experiment [2] is MALME-3M. In words: NCI60 cell growth and viability: MALME-3M. The following applies: Melanoma, two days. It is filed as cell-based.
For experiment [3], the system named is ACHN. In words: NCI60 cell growth and viability: ACHN. Type of experiment: cell-based. The following applies: Renal Cancer, two days.
Experiment [4] deals with HS 578T. Kind of experiment: NCI60 cell growth and viability: HS 578T. It is filed as cell-based. The following applies: Breast Cancer, two days.
Where [5] appears, read: Homo sapiens, 48 h, read-out: log10 [GI50 (M)] (converted).
[6] abbreviates: Homo sapiens, 48 h, read-out: log10 [LC50 (M)] (converted).

The GI50 is the concentration that inhibits growth by half.

SMILES strings stand for the structures. Some results are limits rather than exact numbers.

For `O=C(Nc1ccc(F)cc1)Nc1ccc(Cl)c([N+](=O)[O-])c1` [Compound 0017, 1-(4-chloro-3-nitrophenyl)-3-(4-fluorophenyl)urea], the “viability of C4-2 compared to BPH-1” value in experiment [1] is given as “preferentially inhibit the viability”. The concentration for 50% growth inhibition (GI50) in experiment [2] (setting [5]) was 2.34e-06 M; in experiment [3] (setting [5]), 2.95e-06 M; in experiment [4] (setting [5]) it was 3.98e-06 M. Besides, the values for the CC50 in experiment [2] (setting [6]), in experiment [3] (setting [6]) and in experiment [4] (setting [6]) were 2.95e-05 M, 6.03e-05 M and at least 0.0001 M, respectively. The “log10 [TGI (M)]” value in experiment [2] is −5.14 log10 M; in experiment [3], −4.96 log10 M; in experiment [4] it was −4.62 log10 M.
